This assay concerns M. tuberculosis. Kind of assay: Antibacterial activity against tuberculosis bacteria, resazurin (REMA) MIC50. In kind it is cell-based. The note with it: Mycobacterium tuberculosis. In general terms: Alamar Blue is a resazurin reagent that responds to reducing activity.

Each structure is given as a SMILES string. Converted amounts (≈) assume the structure as drawn. Where two headings read alike, the source gives them in different places.

As for `C/C=C(\NC(=O)c1csc(-c2csc(-c3ccc4c(n3)-c3csc(n3)[C@H]([C@@H](C)O)NC(=O)c3csc(n3)[C@H](C(C)C)NC(=O)c3csc(n3)/C(=C/C)NC(=O)[C@H]([C@@H](C)O)NC(=O)c3csc-4n3)n2)n1)C(=O)NCC(C)=O` [Micrococcin P2], the MIC50 is 0.375 µM (≈ 0.428 µg/mL) (Extensively Drug Resistant #3 (XDR-3), read-out: MIC50); 0.094 µM (≈ 0.107 µg/mL) (Extensively Drug Resistant #4 (XDR-4), read-out: MIC50); 0.114 µM (≈ 0.13 µg/mL) (Extensively Drug Resistant #5 (XDR-5), read-out: MIC50); 0.722 µM (≈ 0.825 µg/mL) (Extensively Drug Resistant #6 (XDR-6), read-out: MIC50); 0.209 µM (≈ 0.239 µg/mL) (Extensively Drug Resistant #10 (XDR-7)); 0.073 µM (≈ 0.0834 µg/mL) (Multi Drug Resistant isolate #3 (MDR-3), read-out: MIC50). Also, the MIC50 was 0.169 µM (≈ 0.193 µg/mL) (Multi Drug Resistant isolate #4 (MDR-4), read-out: MIC50); 0.051 µM (≈ 0.0583 µg/mL) (Multi Drug Resistant isolate #11 (MDR-11), read-out: MIC50); 2.3 µM (≈ 2.63 µg/mL) (Multi Drug Resistant isolate #20 (MDR-20), read-out: MIC50); 0.044 µM (≈ 0.0503 µg/mL) (Multi Drug Resistant isolate #21 (MDR-21), read-out: MIC50); 0.304 µM (≈ 0.347 µg/mL) (Multi Drug Resistant isolate #30 (MDR-30), read-out: MIC50).

The MIC50 is an inhibitory concentration at the 50% level, which refers to growth in some studies and to a panel of isolates in others.

These data come from patent US20240277800A1, “PHARMACEUTICAL COMPOSITION COMPRISING MACROCOSINE COMPOUND AND METHOD FOR PREPARING MACROCOSINE COMPOUND” (priority 2021, published 2024).
